Experimental data reported in US12637414B2, “Arylamides and methods of use thereof” (Genzyme Corporation, priority 2019, dated 2026).

Molecular target: T1, human Cystic Fibrosis Transmembrane Conductance Regulator (CFTR) harboring the ΔF508 mutation (Homo sapiens, UniProt P13569, DEL508-508)
T1 construct: expressed in transfected cells; host or cells: H441 carcinoma line (G418 selection)
Test: H441 cell Emax and EC50: HRP-tagged ΔF508-CFTR cell surface luminescence assay
Assay type: cell-based
Details: H441 cells expressing ΔF508-CFTR-HRP, 27° C., two nights; for EC50: 15-point dose-response, top 24.5 μM; for Emax: NCI-H441, % of maximum VX809 signal
Summary of the method: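 Cells express ΔF508-CFTR carrying an HRP tag in extracellular loop 4 (CMV promoter); ~10K cells/well treated with a 15-point series from 24.5 µM and incubated two nights at 27° C. Surface CFTR read by luminescence from HRP substrate. EC50 and Emax given relative to maximal VX809 (260 µM stock) signal.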

T1 sequence (P13569 with tags, fused parts or gaps DEL508-508): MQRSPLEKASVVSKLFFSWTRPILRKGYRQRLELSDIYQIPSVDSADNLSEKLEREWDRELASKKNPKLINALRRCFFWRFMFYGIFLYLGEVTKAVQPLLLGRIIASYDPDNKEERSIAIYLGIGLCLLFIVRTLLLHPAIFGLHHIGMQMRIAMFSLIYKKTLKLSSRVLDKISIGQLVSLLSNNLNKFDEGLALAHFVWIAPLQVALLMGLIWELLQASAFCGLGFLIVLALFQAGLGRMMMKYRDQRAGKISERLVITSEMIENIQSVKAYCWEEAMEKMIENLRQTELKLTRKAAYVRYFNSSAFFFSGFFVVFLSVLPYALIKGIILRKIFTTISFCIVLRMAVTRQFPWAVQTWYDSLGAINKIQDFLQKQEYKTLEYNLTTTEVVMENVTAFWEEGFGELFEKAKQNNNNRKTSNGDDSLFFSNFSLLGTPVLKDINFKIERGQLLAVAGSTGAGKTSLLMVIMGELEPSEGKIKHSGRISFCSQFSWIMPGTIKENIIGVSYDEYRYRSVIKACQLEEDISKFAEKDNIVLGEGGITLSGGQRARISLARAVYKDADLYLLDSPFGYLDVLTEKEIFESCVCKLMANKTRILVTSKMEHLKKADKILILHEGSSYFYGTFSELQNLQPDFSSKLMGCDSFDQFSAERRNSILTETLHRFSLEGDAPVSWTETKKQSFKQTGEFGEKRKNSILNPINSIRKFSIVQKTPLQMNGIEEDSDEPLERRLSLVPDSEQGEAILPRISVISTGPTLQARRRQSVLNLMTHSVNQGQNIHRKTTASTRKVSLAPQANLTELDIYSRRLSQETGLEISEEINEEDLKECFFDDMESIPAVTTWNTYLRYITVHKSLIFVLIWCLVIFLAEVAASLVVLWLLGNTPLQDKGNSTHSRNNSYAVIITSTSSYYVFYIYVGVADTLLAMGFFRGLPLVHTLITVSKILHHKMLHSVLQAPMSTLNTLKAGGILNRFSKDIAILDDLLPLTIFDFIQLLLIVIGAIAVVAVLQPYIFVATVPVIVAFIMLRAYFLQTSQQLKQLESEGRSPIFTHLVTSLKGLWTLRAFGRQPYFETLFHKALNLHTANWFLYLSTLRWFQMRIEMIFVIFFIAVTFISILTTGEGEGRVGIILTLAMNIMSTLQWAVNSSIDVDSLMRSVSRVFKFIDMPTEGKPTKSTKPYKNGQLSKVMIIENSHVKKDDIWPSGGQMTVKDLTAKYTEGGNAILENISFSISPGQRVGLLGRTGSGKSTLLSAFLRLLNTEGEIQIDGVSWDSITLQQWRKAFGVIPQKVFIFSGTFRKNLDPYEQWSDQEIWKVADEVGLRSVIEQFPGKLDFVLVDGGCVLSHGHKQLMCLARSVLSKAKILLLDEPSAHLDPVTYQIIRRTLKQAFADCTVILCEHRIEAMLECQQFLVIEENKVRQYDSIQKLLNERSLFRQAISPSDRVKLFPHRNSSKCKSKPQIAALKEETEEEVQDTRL

| EC50 | Emax | Compound |
| --- | --- | --- |
| 446 nM | 100% | O=C(N[C@H](C(=O)O)C12CC3CC(CC(C3)C1)C2)c1ccc2ccccc2c1OCc1ccc(S(=O)(=O)C(F)(F)F)cc1 [compound 61] |
| – | 4% | CC(C)OC(=O)[C@@H](NC(=O)c1ccc2ccccc2c1OCc1ccc(C(F)(F)F)cc1)C12CC3CC(CC(C3)C1)C2 [compound 74] |
| 328 nM | 158% | O=C(N[C@H](C(=O)O)C12CC3CC(CC(C3)C1)C2)c1sc2ccccc2c1OCc1ccc(C(F)(F)F)cc1 [compound 15] |
| 393 nM | 154% | O=C(N[C@H](C(=O)O)C12CC3CC(CC(C3)C1)C2)c1ccc2ccccc2c1OCc1ccc(SC(F)(F)F)cc1 [compound 2] |
| 991 nM | 55.7% | O=C(N[C@H](C(=O)O)C12CC3CC(CC(O)(C3)C1)C2)c1ccc2cc(F)ccc2c1OCc1ccc(SC(F)(F)F)cc1 [compound 4] |
| 397 nM | 30.2% | CC(C)Oc1ccc2c(OCc3ccc(C(F)(F)F)cc3)c(C(=O)N[C@H](C(=O)O)C34CC5CC(CC(C5)C3)C4)ccc2c1 [compound 103, (2S)-2-(1-adamantyl)-2-[[6-isopropoxy-1-[[4-(trifluoromethyl)phenyl]methoxy]naphthalene-2-carbonyl]amino]acetic acid] |

Second part, the compound before the results:

| Compound | EC50 | Emax |
| --- | --- | --- |
| CC(C)OC(=O)[C@@H](NC(=O)c1ccc2cccnc2c1OCc1ccc(C(F)(F)F)cc1)C12CC3CC(CC(C3)C1)C2 [compound 69] | ≥ 24500 nM | 28.9% |
| C[C@H]1N(Cc2ccc(C(F)(F)F)cc2)c2c(ccc3ccccc23)C(=O)N1[C@H](C(=O)O)C12CC3CC(CC(C3)C1)C2 [compound 129, (2S)-2-(1-adamantyl)-2-[(2S)-2-methyl-4-oxo-1-[[4-(trifluoromethyl)phenyl]methyl]-2H-benzo[h]quinazolin-3-yl]acetic acid] | 90 nM | 34.9% |
| O=C(N[C@H](C(=O)O)C12CC3CC(CC(C3)C1)C2)c1ccn2cccc2c1OCc1ccc(OC(F)(F)F)cc1 [compound 118, (2S)-2-(1-adamantyl)-2-[[8-[[4-(trifluoromethoxy)phenyl]methoxy]indolizine-7-carbonyl]amino]acetic acid; 2,2,2-trifluoroacetic acid] | 280 nM | 141% |
| COC12CC3CC(C1)CC([C@H](NC(=O)c1ccc4ccccc4c1OCc1ccc(C(F)(F)F)cc1)C(=O)O)(C3)C2 [compound 85] | 375 nM | 131% |
| O=C(N[C@H](C(=O)O)C12CC3CC(CC(C3)C1)C2)c1ccc2cccnc2c1OCc1ccc(Cl)c(Cl)c1 [compound 31] | 308 nM | 194% |
| CC12CC3(C)CC(C)(C1)CC([C@H](NC(=O)c1ccc4ccccc4c1OCc1ccc(C(F)(F)F)cc1)C(=O)O)(C2)C3 [compound 59] | 291 nM | 257% |
| O=C(N[C@H](C(=O)O)C12CC3CC(CC(C3)C1)C2)c1sc2ccccc2c1OCc1ccc(Cl)c(Cl)c1 [compound 24] | 726 nM | 159% |
| O=C(N[C@H](C(=O)O)C12CC3CC(CC(O)(C3)C1)C2)c1ccc2cccnc2c1OCC1CCC(F)(F)CC1 [compound 60] | 11600 nM | 73.1% |
| O=C(O)[C@@H](n1c(=O)c2ccc3ccccc3c2n(Cc2ccc(C(F)(F)F)cc2)c1=O)C12CC3CC(CC(C3)C1)C2 [compound 137, (2S)-2-(1-adamantyl)-2-[2,4-dioxo-1-[[4-(trifluoromethyl)phenyl]methyl]benzo[h]quinazolin-3-yl]acetic acid] | 1600 nM | 5.3% |
| O=C(N[C@H](C(=O)O)C12CC3CC(CC(OCC(F)(F)F)(C3)C1)C2)c1ccc2cc(F)ccc2c1OCc1ccc(C(F)(F)F)cc1 [compound 26] | 183 nM | 113% |
